These results are taken from patent US7968109B2, “Liquid compositions for treating plant propagation materials” (Syngenta Crop Protection Inc., priority 2005, dated 2011).

A short description of series [1]: Selective loading of active ingredient on cut side and skin side of tuber. In kind it is physicochemical, potato. The conditions noted are these: analyte fludioxonil. From the text:
Generally, treatment of potato tubers and/or cut seeds with liquid pesticides results in the majority of the pesticide settling on the cut side of the seed rather than on the skin side of the seed. Such affinity for the cut side is thought to be based on the pesticides' affinity for water. […] Rather, the pesticidal action is more useful on the skin side of the tuber, where the eyes are present and where germination occurs.
Although not wanting to be bound by any particular theory, it is thought that the nonpolar nature of the waxes and silicas present in the formulations of the present invention have affinity for the skin side, causing a greater loading of the active ingredients on the skin side.

Another series deals with Colorado Potato Beetles. Description: Control of Colorado Potato Beetles on potatoes (defoliation). It is filed as in vivo. As for the experimental part:
Comparative trials were conducted to show the protection of the formulation described herein against different insect pests.

Turning to `N#Cc1c[nH]cc1-c1cccc2c1OC(F)(F)O2` [Fludioxonil], the “Amount of fludioxonil present on cut side of tuber” value in series [1] (cut side) was 21. Besides, the “Amount of fludioxonil present on skin side of tuber” value in series [1] (skin side) is listed as 21.
In the case of `O=[N+]([O-])NC1=NCCN1Cc1ccc(Cl)nc1` [Imidacloprid, imidacloprid], the entries for the “% Defoliation” value in the series with Colorado Potato Beetles (102 days after planting (Wash. State)) and in the series with Colorado Potato Beetles (105 days after planting (Idaho)) were 9% and 0%, respectively.
